Laboratory results as given in the supplement of paper PMC10307832.

Assays:
Experiment in all cases: relative viability (nuclei count vs DMSO), 5 days (fraction); higher = more cells survive
NCI-H1793 = system: NCI-H1793
How it was run: (§1)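 Cells from lung cancer lines were seeded into 1536-well plates and, one day later, dosed by pin tool. Treatments were either a single drug or a fixed dose of an anchor drug with five library-drug doses (not always all listed) in √10 steps. After 5 days, nuclei were stained in a one-step fixation (final 0.05% Triton X-100, 1% formaldehyde, 1 ug/ml Hoechst) and counted on 4× images, and relative viability is the treated-to-vehicle nuclei ratio, as the median of duplicate plates.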

SW 1573 = system: SW 1573
How it was run: as §1

NCI-H1355 = system: NCI-H1355
How it was run: as §1

NCI-H2347 = system: NCI-H2347
How it was run: as §1

PC-3 [JPC-3] = system: PC-3 [JPC-3]
How it was run: as §1

PC-14 = system: PC-14
How it was run: as §1

NCI-H647 = system: NCI-H647
How it was run: as §1

NCI-H520 = system: NCI-H520
How it was run: as §1

NCI-H727 = system: NCI-H727
How it was run: as §1

LCLC-97TM1 = system: LCLC-97TM1
How it was run: as §1

NCI-H1993 = system: NCI-H1993
How it was run: as §1

NCI-H460 = system: NCI-H460
How it was run: as §1

NCI-H1666 = system: NCI-H1666
How it was run: as §1

NCI-H1975 = system: NCI-H1975
How it was run: as §1

NCI-H2009 = system: NCI-H2009
How it was run: as §1

SK-LU-1 = system: SK-LU-1
How it was run: as §1

EMC-BAC-2 = system: EMC-BAC-2
How it was run: as §1

NCI-H1755 = system: NCI-H1755
How it was run: as §1

NCI-H2170 = system: NCI-H2170
How it was run: as §1

NCI-H2126 = system: NCI-H2126
How it was run: as §1

ABC-1 = system: ABC-1
How it was run: as §1

NCI-H1944 = system: NCI-H1944
How it was run: as §1

NCI-H441 = system: NCI-H441
How it was run: as §1

O=C(O)CCCCC(CCSCc1ccccc1)SCc1ccccc1 (stereo not given) [CPI-613] + N=C(N)NC(=N)NCCc1ccccc1 [Phenformin] (partner 250 µM)
relative viability (NCI-H1793; first compound 5 µM): 0.314 | relative viability (NCI-H1793; first compound 15.81 µM): 0.319 | relative viability (NCI-H1793; first compound 50 µM): 0.45 | relative viability (NCI-H1793; first compound 158.11 µM): 0.194 | relative viability (NCI-H1793; first compound 500 µM): 0.0229 | relative viability (SW 1573; first compound 5 µM): 0.347 | relative viability (SW 1573; first compound 15.81 µM): 0.357 | relative viability (SW 1573; first compound 50 µM): 0.304 | relative viability (SW 1573; first compound 158.11 µM): 0.0746 | relative viability (SW 1573; first compound 500 µM): 0.0663 | relative viability (NCI-H1355; first compound 5 µM): 0.423 | relative viability (NCI-H1355; first compound 15.81 µM): 0.412 | relative viability (NCI-H1355; first compound 50 µM): 0.411 | relative viability (NCI-H1355; first compound 158.11 µM): 0.347 | relative viability (NCI-H1355; first compound 500 µM): 0.105 | relative viability (NCI-H2347; first compound 5 µM): 0.441 | relative viability (NCI-H2347; first compound 15.81 µM): 0.352 | relative viability (NCI-H2347; first compound 50 µM): 0.461 | relative viability (NCI-H2347; first compound 158.11 µM): 0.471 | relative viability (NCI-H2347; first compound 500 µM): 0.378 | relative viability (PC-3 [JPC-3]; first compound 5 µM): 0.474 | relative viability (PC-3 [JPC-3]; first compound 15.81 µM): 0.495 | relative viability (PC-3 [JPC-3]; first compound 50 µM): 0.494 | relative viability (PC-3 [JPC-3]; first compound 158.11 µM): 0.465 | relative viability (PC-3 [JPC-3]; first compound 500 µM): 0.0769 | relative viability (PC-14; first compound 5 µM): 0.463 | relative viability (PC-14; first compound 15.81 µM): 0.458 | relative viability (PC-14; first compound 50 µM): 0.567 | relative viability (PC-14; first compound 158.11 µM): 0.386 | relative viability (PC-14; first compound 500 µM): 0.207 | relative viability (NCI-H647; first compound 5 µM): 0.575 | relative viability (NCI-H647; first compound 15.81 µM): 0.408 | relative viability (NCI-H647; first compound 50 µM): 0.501 | relative viability (NCI-H647; first compound 158.11 µM): 0.108 | relative viability (NCI-H647; first compound 500 µM): 0.0098 | relative viability (NCI-H520; first compound 5 µM): 0.667 | relative viability (NCI-H520; first compound 15.81 µM): 0.433 | relative viability (NCI-H520; first compound 50 µM): 0.634 | relative viability (NCI-H520; first compound 158.11 µM): 0.446 | relative viability (NCI-H520; first compound 500 µM): 0.35 | relative viability (NCI-H727; first compound 5 µM): 0.548 | relative viability (NCI-H727; first compound 15.81 µM): 0.693 | relative viability (NCI-H727; first compound 50 µM): 0.62 | relative viability (NCI-H727; first compound 158.11 µM): 0.353 | relative viability (NCI-H727; first compound 500 µM): 0.0983 | relative viability (LCLC-97TM1; first compound 5 µM): 0.446 | relative viability (LCLC-97TM1; first compound 15.81 µM): 0.325 | relative viability (LCLC-97TM1; first compound 50 µM): 0.405 | relative viability (LCLC-97TM1; first compound 158.11 µM): 0.371 | relative viability (LCLC-97TM1; first compound 500 µM): 0.0437 | relative viability (NCI-H1993; first compound 5 µM): 0.492 | relative viability (NCI-H1993; first compound 15.81 µM): 0.532 | relative viability (NCI-H1993; first compound 50 µM): 0.492 | relative viability (NCI-H1993; first compound 158.11 µM): 0.473 | relative viability (NCI-H1993; first compound 500 µM): 0.42 | relative viability (NCI-H460; first compound 5 µM): 0.521 | relative viability (NCI-H460; first compound 15.81 µM): 0.449 | relative viability (NCI-H460; first compound 50 µM): 0.434 | relative viability (NCI-H460; first compound 158.11 µM): 0.115 | relative viability (NCI-H460; first compound 500 µM): 0.0156 | relative viability (NCI-H1666; first compound 5 µM): 0.56 | relative viability (NCI-H1666; first compound 15.81 µM): 0.539 | relative viability (NCI-H1666; first compound 50 µM): 0.534 | relative viability (NCI-H1666; first compound 158.11 µM): 0.26 | relative viability (NCI-H1666; first compound 500 µM): 0.251 | relative viability (NCI-H1975; first compound 5 µM): 0.397 | relative viability (NCI-H1975; first compound 15.81 µM): 0.404 | relative viability (NCI-H1975; first compound 50 µM): 0.388 | relative viability (NCI-H1975; first compound 158.11 µM): 0.291 | relative viability (NCI-H1975; first compound 500 µM): 0.0692 | relative viability (NCI-H2009; first compound 5 µM): 0.478 | relative viability (NCI-H2009; first compound 15.81 µM): 0.443 | relative viability (NCI-H2009; first compound 50 µM): 0.42 | relative viability (NCI-H2009; first compound 158.11 µM): 0.0548 | relative viability (NCI-H2009; first compound 500 µM): 0.0187 | relative viability (SK-LU-1; first compound 5 µM): 0.547 | relative viability (SK-LU-1; first compound 15.81 µM): 0.479 | relative viability (SK-LU-1; first compound 50 µM): 0.642 | relative viability (SK-LU-1; first compound 158.11 µM): 0.248 | relative viability (SK-LU-1; first compound 500 µM): 0.0581 | relative viability (EMC-BAC-2; first compound 5 µM): 0.531 | relative viability (EMC-BAC-2; first compound 15.81 µM): 0.517 | relative viability (EMC-BAC-2; first compound 50 µM): 0.502 | relative viability (EMC-BAC-2; first compound 158.11 µM): 0.226 | relative viability (EMC-BAC-2; first compound 500 µM): 0.0232 | relative viability (NCI-H1755; first compound 5 µM): 0.608 | relative viability (NCI-H1755; first compound 15.81 µM): 0.642 | relative viability (NCI-H1755; first compound 50 µM): 0.558 | relative viability (NCI-H1755; first compound 158.11 µM): 0.533 | relative viability (NCI-H1755; first compound 500 µM): 0.183 | relative viability (NCI-H2170; first compound 5 µM): 0.435 | relative viability (NCI-H2170; first compound 15.81 µM): 0.404 | relative viability (NCI-H2170; first compound 50 µM): 0.38 | relative viability (NCI-H2170; first compound 158.11 µM): 0.352 | relative viability (NCI-H2170; first compound 500 µM): 0.11 | relative viability (NCI-H2126; first compound 5 µM): 0.535 | relative viability (NCI-H2126; first compound 15.81 µM): 0.524 | relative viability (NCI-H2126; first compound 50 µM): 0.585 | relative viability (NCI-H2126; first compound 158.11 µM): 0.368 | relative viability (NCI-H2126; first compound 500 µM): 0.0437 | relative viability (ABC-1; first compound 5 µM): 0.22 | relative viability (ABC-1; first compound 15.81 µM): 0.211 | relative viability (ABC-1; first compound 50 µM): 0.247 | relative viability (ABC-1; first compound 158.11 µM): 0.146 | relative viability (ABC-1; first compound 500 µM): 0.192 | relative viability (NCI-H1944; first compound 5 µM): 0.194 | relative viability (NCI-H1944; first compound 15.81 µM): 0.185 | relative viability (NCI-H1944; first compound 50 µM): 0.187 | relative viability (NCI-H1944; first compound 158.11 µM): 0.14 | relative viability (NCI-H1944; first compound 500 µM): 0.0441 | relative viability (NCI-H441; first compound 5 µM): 0.885 | relative viability (NCI-H441; first compound 15.81 µM): 0.734 | relative viability (NCI-H441; first compound 50 µM): 0.79 | relative viability (NCI-H441; first compound 158.11 µM): 0.284 | relative viability (NCI-H441; first compound 500 µM): 0.0276
